Measurements published in article PMC9995496, “A screen for MeCP2-TBL1 interaction inhibitors using a luminescence-based assay” (Scientific Reports, 2023).

Target: T1, MeCP2-TBL1 interaction (MeCP2-SmBiT / TBL1-LgBiT) (Mus musculus, UniProt Q9QXE7)
T1 construct: expressed in transfected cells; crude lysate used as a cell-free assay
T1 sequence (Q9QXE7 166-527): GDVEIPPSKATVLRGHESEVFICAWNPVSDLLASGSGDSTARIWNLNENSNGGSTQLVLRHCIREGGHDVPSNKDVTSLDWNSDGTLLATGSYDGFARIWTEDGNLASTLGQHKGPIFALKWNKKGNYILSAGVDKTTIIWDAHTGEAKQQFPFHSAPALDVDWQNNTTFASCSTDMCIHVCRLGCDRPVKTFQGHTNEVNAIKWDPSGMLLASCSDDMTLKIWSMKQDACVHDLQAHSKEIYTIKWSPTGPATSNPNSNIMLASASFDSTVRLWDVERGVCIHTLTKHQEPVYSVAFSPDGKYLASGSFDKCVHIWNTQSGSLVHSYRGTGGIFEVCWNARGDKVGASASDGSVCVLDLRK
Assay: MeCP2-TBL1 NanoLuc luciferase complementation assay (cell-free, extracts of transfected HEK293 cells);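 note: each compound tested at 20 µM final concentration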
Type: binding, human
Summary of the method: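 Cell-free split NanoLuc: lysate of HEK293 cells co-expressing the MeCP2 C-terminal half-SmBiT and TBL1 WD domain-LgBiT, mixed 1:1 with furimazine. After 30 min at room temperature, luminescence was plate-median normalized.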

[1] = primary screen of the Asinex library, sheet "Sargen output Asinex library", one well per compound
[2] = primary screen of Asinex library, single well per compound
[3] = primary screen of the Asinex library, sheet "Sargen output Asinex library", one well per compound, Batch Ref. 1

Row | SMILES | Inhibition percent [1] | Inhibition percent [3] | further results
1 | O=C(CN1C[C@@H](c2cc(F)cc(F)c2)[C@@]2(CCCCC(=O)N2)C1)Nc1ccnn1C1CCCC1 [BDH_33619464] | 4.29% | – | –
2 | COc1cccc([C@@H]2C[C@]3(C)NC(=O)CCCC[C@@H]3N2CC(=O)Nc2cc(C)ccc2F)c1 [BDH_33619764] | – | – | Inhibition percent [2]: -0.65
3 | CC(=O)N[C@@]12CCN(CC(=O)Nc3cc(C)ccc3F)C[C@@H]1[C@@H](c1ccccc1)N(C(C)=O)C2 [BDH_33619766] | – | – | Inhibition percent [2]: -3.87
4 | CC(=O)N[C@@]12CN(CC(=O)Nc3cc(C)ccc3F)CC[C@@H]1[C@@H](c1ccccc1)N(C(C)=O)C2 [BDH_33619769] | -1.76% | – | –
5 | CC(=O)N[C@H]1C[C@@H](C(=O)N(C)C)N(CC(=O)Nc2cccc3c2CCCC3)[C@H]1c1ccccc1 [BDH_33619991] | – | -0.19% | –
6 | COc1cccc([C@@H]2C[C@]3(C)NC(=O)CCCC[C@@H]3N2CC(=O)Nc2ccn(C)n2)c1 [BDH_33620384] | – | – | Inhibition percent [2]: -2.63
7 | O=C(CN1CCNCC1c1ccc(C(F)(F)F)cc1)NC(c1ccccc1)c1ccccc1 (centres unmarked) [BDH_33620941] | – | – | Inhibition percent [2]: -0.43
8 | COc1cccc([C@@H]2C[C@]3(C)NC(=O)CCCC[C@@H]3N2CC(=O)Nc2cc(F)ccc2C)c1 [BDH_33620981] | – | – | Inhibition percent [2]: -1.41
9 | CC(=O)N[C@@]12CN(C(C)=O)CC[C@@H]1[C@@H](c1ccccc1)N(CC(=O)Nc1cc(F)ccc1C)C2 [BDH_33621128] | 1.60% | – | –
10 | COc1cccc([C@@H]2C[C@]3(C)NC(=O)CCCC[C@@H]3N2CC(=O)Nc2cccc(C)c2C)c1 [BDH_33621286] | – | 2.19% | –
11 | CC(=O)N[C@@]12CN(C)CC[C@@H]1[C@@H](c1ccccc1)N(CC(=O)Nc1cccc(C)c1C)C2 [BDH_33621433] | -4.50% | – | –
12 | CC(=O)N[C@@]12CN(C(C)=O)CC[C@@H]1[C@@H](c1ccccc1)N(CC(=O)Nc1cccc(C)c1C)C2 [BDH_33621434] | 5.23% | – | –
13 | COc1ccc(NC(C)=O)c(NC(=O)CN2C[C@H]3CCC[C@H](Cc4cnccn4)[C@H]3C2)c1 [BDH_33621771] | – | – | Inhibition percent [2]: 0.12
14 | CC(=O)N[C@@]12CN(C(C)=O)CC[C@@H]1[C@@H](c1ccccc1)N(CC(=O)Nc1cccc(F)c1C)C2 [BDH_33622250] | – | -0.19% | –
15 | COc1cccc([C@@H]2C[C@]3(C)NC(=O)CCCC[C@@H]3N2CC(=O)NCc2nc3ccccc3n2C)c1 [BDH_33622879] | – | 0.95% | –
16 | Cn1c(CNC(=O)CN2[C@H](Cc3ccccc3)C[C@]3(C)NC(=O)CCC[C@H]23)nc2ccccc21 [BDH_33623014] | -0.21% | – | –
17 | COc1ccc([C@@H]2C[C@]3(C)NC(=O)CCC[C@@H]3N2CC(=O)NCc2nc3ccccc3n2C)cc1 [BDH_33623015] | 0.43% | – | –
18 | CCc1ccccc1NC(=O)CN1CC[C@@]2(NC(C)=O)CN(C(C)=O)[C@H](c3ccccc3)[C@H]2C1 [BDH_33623049] | -1.00% | – | –
19 | CC(=O)N[C@H]1C[C@@H](C(=O)N(C)C)N(CC(=O)NCc2ccc3[nH]c(C)c(C)c3c2)[C@H]1c1ccccc1 [BDH_33623462] | -0.84% | – | –
20 | COc1ccc([C@@H]2C[C@]3(C)NC(=O)CCC[C@@H]3N2CC(=O)NCc2ccc3[nH]c(C)c(C)c3c2)cc1 [BDH_33623525] | – | -0.10% | –
21 | CCn1cc(NC(=O)CN2[C@H]3CCCCC(=O)N[C@@]3(C)C[C@H]2c2cccc(C(F)(F)F)c2)c(C)n1 [BDH_33623667] | – | – | Inhibition percent [2]: -2.55
22 | CCn1cc(NC(=O)CN2[C@H](Cc3ccccc3)C[C@]3(C)NC(=O)CCC[C@H]23)c(C)n1 [BDH_33623813] | -1.65% | – | –
23 | CC(=O)Nc1ccc(NC(=O)CN2[C@H](Cc3ccccc3)C[C@]3(C)NC(=O)CCC[C@H]23)c(Cl)c1 [BDH_33623952] | 1.80% | – | –
24 | COc1cccc([C@@H]2C[C@]3(C)NC(=O)CCCC[C@@H]3N2CC(=O)Nc2ccc(OC(F)F)cc2)c1 [BDH_33624322] | 7.98% | – | –

Row | SMILES | Inhibition percent [1] | Inhibition percent [3] | further results
25 | CC(=O)N[C@@]12CN(C)CC[C@@H]1[C@@H](c1ccccc1)N(CC(=O)Nc1ccc(OC(F)F)cc1)C2 [BDH_33624452] | – | – | Inhibition percent [2]: 0.21
26 | COc1ccc([C@@H]2C[C@]3(C)NC(=O)CCC[C@@H]3N2CC(=O)Nc2ccc(OC(F)F)cc2)cc1 [BDH_33624459] | – | -1.08% | –
27 | Cc1cc(NC(=O)CN2[C@H]3CCCCCN[C@@]3(C)C[C@H]2c2ccccc2)nn1C [BDH_33624483] | – | – | Inhibition percent [2]: -0.55
28 | COc1cccc([C@@H]2C[C@]3(C)NC(=O)CCCC[C@@H]3N2CC(=O)Nc2cc(C)n(C)n2)c1 [BDH_33624491] | – | -2.56% | –
29 | CCc1ccc(NC(=O)CN2[C@H]3CCCCC(=O)N[C@@]3(C)C[C@H]2c2cccc(OC)c2)cc1 [BDH_33625442] | 10.53% | – | –
30 | CC(=O)N[C@@]12CCN(CC(=O)Nc3ccc(C)c(F)c3)C[C@@H]1[C@@H](c1ccccc1)N(C(C)=O)C2 [BDH_33625631] | 2.58% | – | –
31 | Cc1ccc(NC(=O)CN2[C@H](Cc3ccccc3)C[C@]3(C)NC(=O)CCC[C@H]23)cc1F [BDH_33625782] | – | 10.91% | –
32 | COc1ccc([C@@H]2C[C@]3(C)NC(=O)CCC[C@@H]3N2CC(=O)Nc2ccc(C)c(F)c2)cc1 [BDH_33625783] | – | 2.77% | –
33 | COc1ccc(C)cc1NC(=O)CN1CC[C@@]2(NC(C)=O)CN(C(C)=O)[C@H](c3ccccc3)[C@H]2C1 [BDH_33625816] | – | 0.56% | –
34 | CC(=O)N[C@@]12CCN(CC(=O)Nc3cccc(F)c3)C[C@@H]1[C@@H](c1ccccc1)N(C(C)=O)C2 [BDH_33625995] | – | -1.85% | –
35 | COc1ccc([C@@H]2C[C@]3(C)NC(=O)CCC[C@@H]3N2CC(=O)Nc2cccc(F)c2)cc1 [BDH_33626152] | – | -3.72% | –
36 | CC(=O)N[C@H]1C[C@@H](C(=O)N(C)C)N(CC(=O)NCc2ccccc2Cl)[C@H]1c1ccccc1 [BDH_33626360] | – | 0.20% | –
37 | C[C@]12C[C@@H](Cc3ccccc3)N(CC(=O)NCc3ccccc3Cl)[C@H]1CCCC(=O)N2 [BDH_33626431] | – | – | Inhibition percent [2]: 6.92
38 | COc1ccc(NC(=O)CN2[C@H]3CCCCC(=O)N[C@@]3(C)C[C@H]2c2cccc(OC)c2)cc1 [BDH_33626569] | – | -0.22% | –
39 | COc1ccc(NC(=O)CN2CC[C@@]3(NC(C)=O)CN(C(C)=O)[C@H](c4ccccc4)[C@H]3C2)cc1 [BDH_33626570] | – | -3.55% | –
40 | Nc1ncc(-c2cccc(C(F)(F)F)c2)c(C2CCCCN2C(=O)CCNC(=O)c2cccnc2)n1 (centres unmarked) [BDH_33627369] | – | 1.39% | –
41 | C[C@]12C[C@@H](Cc3ccccc3)N(C(=O)CC3CCN(c4ncccn4)CC3)[C@H]1CCCC(=O)N2 [BDH_33627845] | – | – | Inhibition percent [2]: -0.41
42 | C[C@]12C[C@@H](Cc3ccccc3)N(C(=O)CCN3C(=O)CCCC3=O)[C@H]1CCCC(=O)N2 [BDH_33628122] | – | 1.89% | –
43 | Cc1cc(O)cc(=O)n1CC(=O)N1CCCCC1C1CCN(C(=O)Cc2ccccc2F)CC1 (centres unmarked) [BDH_33628360] | – | – | Inhibition percent [2]: -0.67
44 | Nc1ncc(-c2cccc(C(F)(F)F)c2)c(C2CCCCN2C(=O)CCN2C(=O)CCNC2=O)n1 (centres unmarked) [BDH_33628597] | – | 2.35% | –
45 | O=C(NCCC1CCCCN1C(=O)CCN1C(=O)CCNC1=O)c1ccccc1 (centres unmarked) [BDH_33628607] | – | – | Inhibition percent [2]: 0.45
46 | Cn1c(=O)c2c(ncn2CCC(=O)N2[C@H](Cc3ccccc3)C[C@]3(C)NC(=O)CCC[C@H]23)n(C)c1=O [BDH_33628646] | – | 0.10% | –
47 | Cc1ccc(NC(=O)c2cccc(C3CCCN3C(=O)CCCN3Cc4ccccc4C3)n2)nc1 (centres unmarked) [BDH_33628747] | -0.70% | – | –
